Assays:
SCT adult rats = test: Kinematic analysis before and after re-transection; type: in vivo, rat
Experimental: A total of 53 adult female Sprague-Dawley rats (200-250 g, 10-12 weeks old) were used in this study (3 rats died during the experimental period and were excluded from the statistical analysis). All procedures were approved by the experimental animal care committee of Keio University, School of Medicine and Murayama Medical Center (approval #12-8). All rats were anesthetized with an intraperitoneal injection of ketamine (100 mg/kg)/xylazine (10 mg/kg). The spinal cord at the level of the T10 lamina was exposed by T10 laminectomy, and the dorsal dura mater was opened. The exposed spinal cord was cut along the inner edge of the vertebra with a sharp micro-scissor. […] Kinematic data were recorded using similar procedures prior to re-transection surgery (on the same day) and on the day following re-transection surgery. […]
To evaluate the locomotor capability of SCT rats in detail, the aforementioned robotic device was employed. Each robotic arm tracked the two-dimensional movement of the ankle, and the trajectory of the ankle movement was then recorded on a computer for kinematic analyses. […] Briefly, the ankle trajectory in each plane was recorded by the robotic arm and a computer. […] All kinematic characteristics were obtained when TO and PC were identified; as a result, parameters such as the duration phase, the swing phase of the step cycle and the length and height of the step were calculated. […]

semaphorin3A = biological target: T1, semaphorin3A (Homo sapiens, UniProt Q14563); test: Collagen co-culture assay (E8 chick DRGs and semaphorin3A-expressing COS7 cell aggregates); type: cell-based; parameters: expressed in transfected cells; host or cells: COS7; details: chick embryonic DRG explants co-cultured with semaphorin3A-COS in collagen gel
T1 sequence (Q14563 21-771): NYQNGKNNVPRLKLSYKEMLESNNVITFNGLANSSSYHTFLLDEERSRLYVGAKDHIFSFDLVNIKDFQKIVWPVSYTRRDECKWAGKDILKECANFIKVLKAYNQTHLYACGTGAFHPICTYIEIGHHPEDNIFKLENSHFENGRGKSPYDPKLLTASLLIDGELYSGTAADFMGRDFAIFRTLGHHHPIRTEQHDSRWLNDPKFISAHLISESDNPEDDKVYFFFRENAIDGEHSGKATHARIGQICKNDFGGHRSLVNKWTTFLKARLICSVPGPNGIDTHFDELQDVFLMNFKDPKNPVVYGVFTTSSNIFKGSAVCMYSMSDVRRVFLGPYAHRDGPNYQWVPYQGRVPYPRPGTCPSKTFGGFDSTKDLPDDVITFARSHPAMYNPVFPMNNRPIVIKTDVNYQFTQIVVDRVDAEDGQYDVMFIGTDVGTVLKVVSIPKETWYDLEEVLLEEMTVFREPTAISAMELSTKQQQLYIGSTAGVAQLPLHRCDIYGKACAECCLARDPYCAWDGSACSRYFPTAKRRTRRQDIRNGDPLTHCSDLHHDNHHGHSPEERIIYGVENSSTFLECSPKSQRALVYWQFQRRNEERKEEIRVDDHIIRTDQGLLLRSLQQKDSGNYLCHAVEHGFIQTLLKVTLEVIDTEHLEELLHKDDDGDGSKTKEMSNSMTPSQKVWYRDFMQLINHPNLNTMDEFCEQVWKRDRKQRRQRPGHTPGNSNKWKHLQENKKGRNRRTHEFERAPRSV
Experimental: The growth cone collapse assay and collagen co-culture experiments were performed as previously described. To examine the effects of SM-345431-silicone, small pieces (2 × 1 × 0.3 mm; approximately 1 mg containing 1 μg of SM-345431) of the SM-345431-silicone or control-silicone were placed in a collagen gel adjacent to E8 chick DRGs and COS7 cell aggregates, as shown in Figure 1C.

## CC(=O)c1cc2c(=O)c3c(C(=O)O)c(O)c(O)cc3oc2c(C(C)=O)c1-c1coc2cc(O)c(O)c(C(=O)O)c2c1=O [SM-345431, Vinaxanthone]
SCT adult rats; SM-345431 alone, re-transection 12 weeks after the initial injury
  step cycle area after re-transection: tended to be attenuated
SCT adult rats; SM-345431 combined with treadmill training, average step height P < 0.01, maximum step height P < 0.05
  step ability after re-transection: greater attenuations of step ability were observed
semaphorin3A
  block of the chemo-repulsive effects of semaphorin3A on DRG neurites: chemo-repulsive effects of semaphorin3A were blocked by SM-345431 in a dose-dependent manner

Reference: PMC4008261, “Rewiring of regenerated axons by combining treadmill training with semaphorin3A inhibition” (Molecular Brain, 2014)
